Data: article PMC4488731 (Viruses, 2015)

Target: T1, EV-A71 2A protease (r2A protease) (Enterovirus A71, UniProt B9VUU3)
T1 sequence (B9VUU3 863-1012 limits assumed): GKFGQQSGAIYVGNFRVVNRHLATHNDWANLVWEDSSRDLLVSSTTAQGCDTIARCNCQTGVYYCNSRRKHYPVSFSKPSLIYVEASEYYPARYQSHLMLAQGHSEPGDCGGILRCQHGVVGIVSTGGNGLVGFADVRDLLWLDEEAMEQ
Assay type: biochemical
Conditions: 37 °C, 2 h, 5 µg/mL r2A, 10 µg/mL HRP substrate

## CCOC(=O)C1=C(Nc2cc(C)cc(C)c2)OCC1=O [CW-33, Ethyl 2-(3′,5′-dimethylanilino)-4-oxo-4,5-dihydrofuran-3-carboxylate]
  IC50: 53.1 µM
